# In US11208412B2 (DAEGU-GYEONGBUK MEDICAL INNOVATION FOUNDATION, priority 2017, dated 2021):
# Target: T1, recombinant LRRK2 kinase (Homo sapiens, UniProt Q5S007)
# T1 construct: purchased Signal Chem, Richmond, BC, Canada
# Experiment: LRRK2 kinase inhibition (Kinase-Glo luminescence)
# Type: biochemical
# Conditions: IC50 grade; 25 μmol/L ATP, LRRKtide, 30° C. 2 hours; read-out: Enzyme activity LRRK2
# Description: Upon completion of the reaction, an equal amount of Kinase-Glo (Promega, Madison, Wis.) solution was added thereto, followed by reaction for 40 minutes. A detection solution was added thereto, followed by further reaction at room temperature for 30 minutes. Then, IC50 of kinase was calculated by measuring the amount of luciferase using a microplate ELISA reader (Bio-Tek).
# T1 sequence (Q5S007 whole entry): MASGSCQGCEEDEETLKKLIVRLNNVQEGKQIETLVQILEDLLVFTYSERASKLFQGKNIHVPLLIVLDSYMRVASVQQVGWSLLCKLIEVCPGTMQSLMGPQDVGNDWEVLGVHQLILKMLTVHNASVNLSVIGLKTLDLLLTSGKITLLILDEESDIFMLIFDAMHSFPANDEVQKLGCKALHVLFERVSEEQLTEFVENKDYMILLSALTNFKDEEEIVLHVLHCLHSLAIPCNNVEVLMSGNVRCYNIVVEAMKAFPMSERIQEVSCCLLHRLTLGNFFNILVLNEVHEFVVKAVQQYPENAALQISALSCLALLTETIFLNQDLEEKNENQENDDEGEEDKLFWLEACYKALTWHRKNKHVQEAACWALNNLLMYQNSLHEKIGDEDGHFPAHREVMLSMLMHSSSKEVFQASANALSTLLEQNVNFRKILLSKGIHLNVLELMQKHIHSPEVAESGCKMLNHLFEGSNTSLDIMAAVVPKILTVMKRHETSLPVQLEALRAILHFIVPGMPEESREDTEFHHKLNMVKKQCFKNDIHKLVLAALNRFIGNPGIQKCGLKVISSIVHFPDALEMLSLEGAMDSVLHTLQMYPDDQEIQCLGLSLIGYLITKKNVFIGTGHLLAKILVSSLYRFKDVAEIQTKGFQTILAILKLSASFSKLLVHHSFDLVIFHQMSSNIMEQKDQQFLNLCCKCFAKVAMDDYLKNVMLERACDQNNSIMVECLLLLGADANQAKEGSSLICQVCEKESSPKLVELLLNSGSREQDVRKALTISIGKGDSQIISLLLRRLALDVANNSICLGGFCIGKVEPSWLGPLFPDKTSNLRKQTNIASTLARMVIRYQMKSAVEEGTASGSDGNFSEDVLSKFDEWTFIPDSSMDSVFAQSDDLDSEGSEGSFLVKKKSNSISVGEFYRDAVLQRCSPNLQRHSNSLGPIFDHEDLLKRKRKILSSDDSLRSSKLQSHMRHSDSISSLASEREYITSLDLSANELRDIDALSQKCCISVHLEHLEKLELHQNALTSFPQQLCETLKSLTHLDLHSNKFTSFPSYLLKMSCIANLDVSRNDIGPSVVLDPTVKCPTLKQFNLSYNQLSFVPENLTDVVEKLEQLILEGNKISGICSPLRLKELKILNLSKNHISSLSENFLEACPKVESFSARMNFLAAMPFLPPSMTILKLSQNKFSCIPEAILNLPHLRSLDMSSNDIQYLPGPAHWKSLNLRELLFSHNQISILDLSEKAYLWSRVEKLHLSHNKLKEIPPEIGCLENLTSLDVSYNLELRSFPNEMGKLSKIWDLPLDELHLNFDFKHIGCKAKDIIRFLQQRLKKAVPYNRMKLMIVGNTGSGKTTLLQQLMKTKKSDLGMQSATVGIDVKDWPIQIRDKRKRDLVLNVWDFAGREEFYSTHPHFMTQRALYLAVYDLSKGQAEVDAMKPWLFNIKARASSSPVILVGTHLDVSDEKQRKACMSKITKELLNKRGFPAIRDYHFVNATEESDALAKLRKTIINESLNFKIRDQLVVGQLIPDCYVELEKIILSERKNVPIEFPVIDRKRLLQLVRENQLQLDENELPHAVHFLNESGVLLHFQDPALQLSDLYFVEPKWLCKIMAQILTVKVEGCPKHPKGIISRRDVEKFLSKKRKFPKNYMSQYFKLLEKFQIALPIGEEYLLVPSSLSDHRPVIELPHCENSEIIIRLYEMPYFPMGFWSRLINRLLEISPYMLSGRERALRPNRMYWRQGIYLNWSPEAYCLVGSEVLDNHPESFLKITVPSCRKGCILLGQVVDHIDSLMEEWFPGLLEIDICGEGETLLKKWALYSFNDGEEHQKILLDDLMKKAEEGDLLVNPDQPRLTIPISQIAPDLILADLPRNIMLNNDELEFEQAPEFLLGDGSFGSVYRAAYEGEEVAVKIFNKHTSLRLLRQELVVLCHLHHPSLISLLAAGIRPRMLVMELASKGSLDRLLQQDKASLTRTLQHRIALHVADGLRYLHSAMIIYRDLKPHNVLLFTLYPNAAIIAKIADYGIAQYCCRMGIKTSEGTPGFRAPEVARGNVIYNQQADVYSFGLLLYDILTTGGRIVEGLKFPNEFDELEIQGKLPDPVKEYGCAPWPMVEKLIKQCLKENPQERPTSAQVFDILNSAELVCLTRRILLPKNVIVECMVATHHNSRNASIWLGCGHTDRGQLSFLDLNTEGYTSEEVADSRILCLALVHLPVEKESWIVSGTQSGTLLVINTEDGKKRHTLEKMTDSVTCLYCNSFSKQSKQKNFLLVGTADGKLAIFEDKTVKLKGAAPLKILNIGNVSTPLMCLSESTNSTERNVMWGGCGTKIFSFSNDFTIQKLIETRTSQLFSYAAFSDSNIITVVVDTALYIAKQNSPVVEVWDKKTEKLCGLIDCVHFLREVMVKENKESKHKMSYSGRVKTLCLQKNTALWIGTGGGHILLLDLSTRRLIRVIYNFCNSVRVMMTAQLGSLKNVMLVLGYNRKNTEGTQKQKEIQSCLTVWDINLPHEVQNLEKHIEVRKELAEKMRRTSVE
row,SMILES,IC50 [nM]
1,"CCNc1nc(Nc2ccc(C(=O)N3CCOC(C)C3)cc2OC)nc2[nH]cc(C(F)(F)F)c12 (stereo in doubt) [Example 111, (S)-(4-((4-(ethylamino)-5-(trifluoromethyl)-7H-pyrrolo[2,3-d]pyrimidine-2-yl)amino)-3-methoxyphenyl)(2-methylmorpholino)methanone]",10 to 100
2,"CCNc1nc(Nc2cc(OC)c(OC)c(OC)c2)nc2[nH]cc(C#N)c12 [Example 3, 4-(ethylamino)-2-((3,4,5-trimethoxyphenyl)amino)-7H-pyrrolo[2,3-d]pyrimidine-5-carbonitrile]",< 10
3,"CCNc1nc(Nc2cnn(C)c2)nc2[nH]cc(C#N)c12 [Example 4, 4-(ethylamino)-2-((1-methyl-1H-pyrazole-4-yl)amino)-7H-pyrrolo[2,3-d]pyrimidine-5-carbonitrile]",< 10
4,"CCNc1nc(Nc2ccn(C)n2)nc2[nH]cc(C#N)c12 [Example 5, 4-(ethylamino)-2-((1-methyl-1H-pyrazole-3-yl)amino)-7H-pyrrolo[2,3-d]pyrimidine-5-carbonitrile]",< 10
5,"CCNc1nc(Nc2cc(F)c(C(=O)N3CCOCC3)cc2OC)nc2[nH]cc(C#N)c12 [Example 6, 4-(ethylamino)-2-((5-fluoro-2-methoxy-4-(morpholine-4-carbonyl)phenyl)amino)-7H-pyrrolo[2,3-d]pyrimidine-5-carbonitrile]",< 10
6,"CCNc1nc(Nc2cc(F)c(C(=O)N3CCC(N4CCOCC4)CC3)cc2OC)nc2[nH]cc(C#N)c12 [Example 7, 4-(ethylamino)-2-((5-fluoro-2-methoxy-4-(4-morpholinopiperidine-1-carbonyl)phenyl)amino)-7H-pyrrolo[2,3-d]pyrimidine-5-carbonitrile]",< 10
7,"CCNc1nc(Nc2ccc(C(=O)N3CCC(N4CCOCC4)CC3)cc2OC)nc2[nH]cc(C#N)c12 [Example 8, 4-(ethylamino)-2-((2-methoxy-4-(4-morpholinopiperidine-1-carbonyl)phenyl)amino)-7H-pyrrolo[2,3-d]pyrimidine-5-carbonitrile]",< 10
8,"CNc1nc(Nc2ccc(C(=O)N3CCC(N4CCOCC4)CC3)cc2OC)nc2[nH]cc(C#N)c12 [Example 9, 2-((2-methoxy-4-(4-morpholinylpiperidine-1-carbonyl)phenyl)amino)-4-(methylamino)-7H-pyrrolo[2,3-d]pyrimidine-5-carbonitrile]",< 10
9,"CNc1nc(Nc2cc(F)c(C(=O)N3CCOCC3)cc2OC)nc2[nH]cc(C#N)c12 [Example 10, 2-((5-fluoro-2-methoxy-4-(morpholine-4-carbonyl)phenyl)amino)-4-(methylamino)-7H-pyrrolo[2,3-d]pyrimidine-5-carbonitrile]",< 10
10,"CNc1nc(Nc2cc(F)c(C(=O)N3CCC(N4CCOCC4)CC3)cc2OC)nc2[nH]cc(C#N)c12 [Example 11, 2-((5-fluoro-2-methoxy-4-(4-morpholinopiperidine-1-carbonyl)phenyl)amino)-4-(methylamino)-7H-pyrrolo[2,3-d]pyrimidine-5-carbonitrile]",< 10
11,"CCCNc1nc(Nc2ccc(C(=O)N3CCOCC3)cc2OC)nc2[nH]cc(C#N)c12 [Example 12, 2-((2-methoxy-4-(morpholine-4-carbonyl)phenyl)amino)-4-(propylamino)-7H-pyrrolo[2,3-d]pyrimidine-5-carbonitrile]",< 10
12,"CCCNc1nc(Nc2ccc(C(=O)N3CCC(N4CCOCC4)CC3)cc2OC)nc2[nH]cc(C#N)c12 [Example 13, 2-((2-methoxy-4-(4-morpholinopiperidine-1-carbonyl)phenyl)amino)-4-(propylamino)-7H-pyrrolo[2,3-d]pyrimidine-5-carbonitrile]",< 10
13,"CCCNc1nc(Nc2cc(F)c(C(=O)N3CCOCC3)cc2OC)nc2[nH]cc(C#N)c12 [Example 14, 2-((5-fluoro-2-methoxy-4-(morpholine-4-carbonyl)phenyl)amino)-4-(propylamino)-7H-pyrrolo[2,3-d]pyrimidine-5-carbonitrile]",10 to 100
14,"CCCNc1nc(Nc2cc(F)c(C(=O)N3CCC(N4CCOCC4)CC3)cc2OC)nc2[nH]cc(C#N)c12 [Example 15, 2-((5-fluoro-2-methoxy-4-(4-morpholinopiperidine-1-carbonyl)phenyl)amino)-4-(propylamino)-7H-pyrrolo[2,3-d]pyrimidine-5-carbonitrile]",< 10
15,"COc1cc(C(=O)N2CCOCC2)ccc1Nc1nc(NC2CC2)c2c(C#N)c[nH]c2n1 [Example 16, 4-(cyclopropylamino)-2-((2-methoxy-4-(morpholine-4-carbonyl)phenyl)amino)-7H-pyrrolo[2,3-d]pyrimidine-5-carbonitrile]",< 10
16,"COc1cc(C(=O)N2CCOCC2)c(F)cc1Nc1nc(NC2CC2)c2c(C#N)c[nH]c2n1 [Example 18, 4-(cyclopropylamino)-2-((5-fluoro-2-methoxy-4-(morpholine-4-carbonyl)phenyl)amino)-7H-pyrrolo[2,3-d]pyrimidine-5-carbonitrile]",10 to 100
17,"COc1cc(C(=O)N2CCC(N3CCOCC3)CC2)c(F)cc1Nc1nc(NC2CC2)c2c(C#N)c[nH]c2n1 [Example 19, 4-(cyclopropylamino)-2-((5-fluoro-2-methoxy-4-(4-morpholinopiperidine-1-carbonyl)phenyl)amino)-7H-pyrrolo[2,3-d]pyrimidine-5-carbonitrile]",10 to 100
18,"CNc1nc(Nc2ccc(C(=O)N3CCO[C@H](C)C3)cc2OC)nc2[nH]cc(C#N)c12 [Example 20, (R)-2-((2-methoxy-4-(2-methylmorpholine-4-carbonyl)phenyl)amino)-4-(methylamino)-7H-pyrrolo[2,3-d]pyrimidine-5-carbonitrile]",< 10
19,"CNc1nc(Nc2ccc(C(=O)N3CCO[C@@H](C)C3)cc2OC)nc2[nH]cc(C#N)c12 [Example 21, (S)-2-((2-methoxy-4-(2-methylmorpholine-4-carbonyl)phenyl)amino)-4-(methylamino)-7H-pyrrolo[2,3-d]pyrimidine-5-carbonitrile]",< 10
20,"CNc1nc(Nc2ccc(C(=O)N3C[C@@H](C)O[C@@H](C)C3)cc2OC)nc2[nH]cc(C#N)c12 [Example 22, 2-((4-((2R,6S)-2,6-dimethylmorpholine-4-carbonyl)-2-methoxyphenyl)amino)-4-(methylamino)-7H-pyrrolo[2,3-d]pyrimidine-5-carbonitrile]",10 to 100
21,CNc1nc(Nc2ccc(C(=O)N3CCC(F)(F)CC3)cc2OC)nc2[nH]cc(C#N)c12 [Example 23],< 10
22,"CCNc1nc(Nc2ccc(C(=O)N3C[C@@H](C)O[C@@H](C)C3)cc2OC)nc2[nH]cc(C#N)c12 [Example 24, 2-((4-((2R,6S)-2,6-dimethylmorpholine-4-carbonyl)-2-methoxyphenyl)amino)-4-(ethylamino)-7H-pyrrolo[2,3-d]pyrimidine-5-carbonitrile]",< 10
23,"CCNc1nc(Nc2ccc(C(=O)N3CCO[C@H](C)C3)cc2OC)nc2[nH]cc(C#N)c12 [Example 25, (R)-4-(ethylamino)-2-((2-methoxy-4-(2-methylmorpholine-4-carbonyl)phenyl)amino)-7H-pyrrolo[2,3-d]pyrimidine-5-carbonitrile]",< 10
24,"CCNc1nc(Nc2ccc(C(=O)N3CCO[C@@H](C)C3)cc2OC)nc2[nH]cc(C#N)c12 [Example 26, (S)-4-(ethylamino)-2-((2-methoxy-4-(2-methylmorpholine-4-carbonyl)phenyl)amino)-7H-pyrrolo[2,3-d]pyrimidine-5-carbonitrile]",< 10
